The text below walks through data of patent US6569637B1, “Diagnostic reagents for renal function disorders and method for analyzing urine samples” (Kikkoman Corporation, priority 1997, dated 2003).

On the set-up of the data set: species or system patient. The conditions noted are these: in vivo. On the procedure:
An ATP standard reagent was prepared by dissolving sodium salt of ATP in 25 mM HEPES buffer (pH7.75) at a concentration of 2×10^−6M.
Two-hundreds μl of a urine sample obtained from a patient suffering from renal dysfunction who received cisplatin administration was added and reacted with 200 μl of the ATP standard reagent prepared as described above at 37° C. for 30 minutes.
The solution was 10-fold diluted with 20 mM phosphate buffer (pH7.5), and 200 μl of the diluted solution was transferred into a test tube for ATP measurement. Then, 100 μl of luciferin-luciferase luminescent reagent which had been prepared by dissolving the freeze-dried luminescent reagent (included in ATP assay kit “CheckLite™” available from Kikkoman Corporation) in a solution for dissolving the reagent (also included in the kit) was added to the solution in the tube. The luminescent level based on the ATP level remaining after the reaction was immediately determined using Lumitester K-210.
On the other hand, the luminescent level corresponding to the ATP level in a urine sample before the reaction was determined in the same matter.
Diagnosis of renal dysfunction by ATP method was performed by calculating the ATP index (residual ATP %) according to the equation below and determining whether the subject is a patient with renal dysfunction S or a healthy individual R according to the following criteria. […]

In the case of `N.N.[Cl][Pt][Cl]` [cisplatin], the “residual ATP % in urine sample (ATP index)” value is “decreases to the minimum”.
